Consider 18 compounds from patent US20240262812A1, “N-SUBSTITUTED PHENYLSULFONAMIDE COMPOUND AND USE THEREOF” (Shanghai Leado Pharmatech Co., Ltd., priority 2021, published 2024).

For this experiment, the target named is T1, mTRPA1 (Mus musculus, UniProt Q8BLA8).
T1 construct: expressed in transfected cells
Put plainly: IonWorks Barracuda (IWB) automated patch clamp, TRPA1 inhibitory activity. Format: cell-based. The note with it: HEK293 cells stably expressing mTRPA1, current induced by AITC, amplitude at +100 mV; read-out: IC50 (inhibition activity on TRPA1). The protocol:
In this example, the inhibitory activity of the compounds prepared in some examples of the present invention on transient receptor potential channel protein ankyrin 1 (TRPA1) was tested. Among them, compound of formula A (WO2010075353) was used as the positive control compound: […]
Test method using IonWorks Barracuda (IWB) automated patch clamp detection: HEK293 cells stably expressing mTRPA1 were placed in the T175 culture flask with DMEM medium containing 15 µg/mL Blasticidin S HCl, 200 µg/mL Hygromycin B and 10% FBS, and cultured in 37° C., 5% CO2 incubator. When the cell density reached about 80%, the culture medium was removed, washed once with phosphate buffered saline (PBS) without calcium and magnesium. 3 mL of Trypsin was added to digest for 2 min, 7 mL of culture solution was added to terminate the digestion. The cells were collected to 15 mL centrifuge tube and centrifuged at 800 rpm for 3 min. After the supernatant was removed, the cells were added to appropriate volume of extracellular fluid for re-suspending, and the cell density was controlled at 2-3×10^6/mL for use in IWB experiment. Extracellular fluid formulation (in mM): 140 NaCl, 5 KCl, 1 MgCl2, 10 HEPES, 0.5 EGTA, 10 Glucose (pH 7.4); intracellular fluid formulation (in mM): 140 CsCl, 10 HEPES, 5 EGTA, 0.1 CaCl2, 1 MgCl2 (pH 7.2). 28 mg/mL of amphotericin B was freshly prepared with DMSO on the day of experiment, and then final concentration of 0.1 mg/mL was prepared with intracellular fluid.
Population patch clamp (PPC) plate was used in IWB experiment. The entire detection process was automatically carried out by the instrument, that is, extracellular fluid was added into 384 wells of PPC plate, and after intracellular fluid was added under PPC plate (in plenum), 6 µL of cell fluid was added for sealing test, and finally the intracellular fluid in plenum was replaced with intracellular fluid containing amphotericin B to establish a whole-cell recording mode after perforating sealed cells. The sampling frequency for recording TPRA1 current was 10 kHz, the cells were clamped at 0 mV, the voltage stimulation command (channel protocol) was a ramp voltage from −100 mV to +100 mV for 300 ms. This voltage stimulation was applied every 10 s, mTRPA1 current was induced by 300 µM AITC.
Data recording and current amplitude measurement export were carried out by IWB software (version 2.5.3, Molecular Devices Corporation, Union City, CA). No statistics was recorded for holes with sealing impedance lower than 20 MΩ. The original current data was corrected by software for leak subtraction. TRPA1 current amplitude was measured at +100 mV. […] If IC50 value of HC030031 exceeded 3 times of the average IC50 value previously obtained on each plate, it would be re-tested. The dose-effect curve of compounds and IC50 were fitted and calculated by GraphPad Prism 5.02 (GraphPad Software, San Diego, CA).
Some compounds of the present invention were subjected to IC50 inhibition activity test using the IonWorks Barracuda (IWB) automated patch clamp detection method.
On the technique in general: Patch clamp records ionic current or voltage across a cell membrane.

For orientation: IC50 means the concentration that inhibits the measured activity by half.

T1 sequence (Q8BLA8 whole entry): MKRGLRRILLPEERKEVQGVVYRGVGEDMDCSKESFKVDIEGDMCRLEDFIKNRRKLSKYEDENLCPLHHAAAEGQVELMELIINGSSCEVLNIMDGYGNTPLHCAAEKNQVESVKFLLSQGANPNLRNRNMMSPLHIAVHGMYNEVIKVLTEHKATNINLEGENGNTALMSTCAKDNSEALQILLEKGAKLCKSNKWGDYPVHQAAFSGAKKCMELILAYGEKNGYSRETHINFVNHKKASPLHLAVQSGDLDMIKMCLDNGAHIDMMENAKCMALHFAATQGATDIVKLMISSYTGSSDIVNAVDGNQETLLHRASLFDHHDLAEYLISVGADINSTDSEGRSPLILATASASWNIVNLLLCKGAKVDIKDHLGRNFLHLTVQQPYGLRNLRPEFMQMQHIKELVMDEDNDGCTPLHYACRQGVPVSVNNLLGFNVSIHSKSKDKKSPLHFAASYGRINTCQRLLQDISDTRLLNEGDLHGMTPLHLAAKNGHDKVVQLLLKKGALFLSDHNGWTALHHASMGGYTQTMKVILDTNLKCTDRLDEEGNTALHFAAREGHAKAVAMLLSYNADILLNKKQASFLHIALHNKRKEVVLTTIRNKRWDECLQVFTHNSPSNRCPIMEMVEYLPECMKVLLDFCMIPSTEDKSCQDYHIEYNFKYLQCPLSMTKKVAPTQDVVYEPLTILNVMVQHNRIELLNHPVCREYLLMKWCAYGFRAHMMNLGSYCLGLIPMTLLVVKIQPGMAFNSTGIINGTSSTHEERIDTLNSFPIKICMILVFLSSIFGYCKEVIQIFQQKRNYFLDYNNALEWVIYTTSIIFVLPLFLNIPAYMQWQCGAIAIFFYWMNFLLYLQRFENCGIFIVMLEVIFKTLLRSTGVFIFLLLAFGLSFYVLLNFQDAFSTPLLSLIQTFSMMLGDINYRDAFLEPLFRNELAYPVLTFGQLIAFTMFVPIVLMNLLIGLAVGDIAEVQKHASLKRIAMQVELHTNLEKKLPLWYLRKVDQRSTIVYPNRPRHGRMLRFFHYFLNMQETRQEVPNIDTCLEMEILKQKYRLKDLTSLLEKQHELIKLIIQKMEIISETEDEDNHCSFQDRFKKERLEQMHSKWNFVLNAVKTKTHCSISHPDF

Take `CNCc1ccc(-c2c(C)noc2C)c(NS(=O)(=O)c2ccccc2)c1` [IA-53, N-(2-(3,5-dimethylisoxazol-4-yl)-5-((methylamino)methyl)phenyl)benzenesulfonamide]: the IC50 was in the range of 5 to 10 µM. Consider `CNCc1ccc(-c2cc[nH]n2)c(NS(=O)(=O)c2ccccc2)c1` [IA-54, N-(5-((methylamino)methyl)-2-(1H-pyrazol-5-yl)phenyl)benzenesulfonamide], for which the IC50 was in the range of 1 to 5 µM. In the case of `CNCc1ccc(-c2cnn(C)c2)c(NS(=O)(=O)c2ccccc2)c1` [IA-56, N-(2-(1-methyl-1H-pyrazole-4-yl)-5-((methylamino)methyl)phenyl)benzenesulfonamide], the IC50 was 10 to 20 µM. For the compound `CNCc1ccc(-c2c(C)nn(C)c2C)c(NS(=O)(=O)c2ccccc2)c1` [IA-57, N-(5-((methylamino)methyl)-2-(1,3,5-trimethyl-1H-pyrazole-4-yl)phenyl) benzenesulfonamide], the 50% inhibitory concentration (IC50) was 20 to 50 µM.

On to `CNCc1ccc(-c2c(C)n[nH]c2C)c(NS(=O)(=O)c2ccccc2)c1` [IA-58, N-(2-(3,5-dimethyl-1H-pyrazole-4-yl)-5-((methylamino)methyl)phenyl)benzenesulfonamide], for which the IC50 fell in the range of 50 to 100 µM. Next, `CNCc1ccc(-c2ncc(C)s2)c(NS(=O)(=O)c2ccccc2)c1` [IA-59, N-(5-((methylamino)methyl)-2-(5-methylthiazol-2-yl)phenyl)benzenesulfonamide]: 5 to 10 µM. For `CNCc1ccc(-c2cnc[nH]2)c(NS(=O)(=O)c2ccccc2)c1` [IA-61, N-(2-(1H-imidazol-5-yl)-5-((methylamino)methyl)phenyl)benzenesulfonamide], the concentration for half-maximal inhibition (IC50) was in the range of 10 to 20 µM.

As to `O=S(=O)(Nc1cc(CNCC(F)(F)F)ccc1-c1ccco1)c1ccccc1` [IA-62], the IC50 lay in the range of 50 to 100 µM. On to `O=S(=O)(Nc1cc(/C=N\O)ccc1-c1ccco1)c1ccccc1` [IC-1, N-(2-(furan-2-yl)-5-((oximido)methyl)phenyl)benzenesulfonamide], for which the IC50 fell in the range of 20 to 50 µM.

Turning to `NCc1ccc(-c2ccco2)c(NS(=O)(=O)c2ccc(F)cc2)c1` [ID-2, N-(5-(aminomethyl)-2-(furan-2-yl)phenyl)-4-fluorobenzenesulfonamide], the half-maximal inhibitory concentration (IC50) lay within 1 to 5 µM.

For `NCc1ccc(NS(=O)(=O)c2ccccc2)c(-c2ccco2)c1` [ID-4, N-(4-(aminomethyl)-2-(furan-2-yl)phenyl)benzenesulfonamide], the IC50 is 1 to 5 µM.

On to `NCc1ccc(NS(=O)(=O)c2ccc(F)cc2)c(-c2ccco2)c1` [ID-6, N-(4-(aminomethyl)-2-(furan-2-yl)phenyl)-4-fluorobenzenesulfonamide], for which the IC50 fell in the range of 1 to 5 µM. As for `NCc1ccc(-c2cc[nH]n2)c(NS(=O)(=O)c2ccsc2)c1` [ID-8, N-(5-(aminomethyl)-2-(1H-pyrazole-3-yl)phenyl)thiophene-3-sulfonamide], the IC50 fell in the range of 1 to 5 µM. With `CC(=O)NCc1ccc(NS(=O)(=O)c2ccsc2)c(-c2ccco2)c1` [IE, N-(3-(furan-2-yl)-4-(thiophene-3-sulfonamide)benzyl)acetamide], the half-maximal inhibitory concentration (IC50) was 20 to 50 µM. With `O=S(=O)(Nc1cc(CO)ccc1-c1ccco1)c1ccccc1` [IH, N-(2-(furan-2-yl)-5-(hydroxymethyl)phenyl)benzenesulfonamide], the IC50 was in the range of 20 to 50 µM. For the compound `CN(C)Cc1ccc(NS(=O)(=O)c2ccsc2)c(-c2ccco2)c1` [IJ-1, N-(4-((dimethylamino)methyl)-2-(furan-2-yl)phenyl)thiophene-3-sulfonamide], the IC50 lay in the range of 1 to 5 µM. As for `CNCc1ccc(-n2nccn2)c(NS(=O)(=O)c2ccccc2)c1` [IQ-3, N-(5-((methylamino)methyl)-2-(2H-1,2,3-triazol-2-yl)phenyl)benzenesulfonamide], the IC50 lay in the range of 1 to 5 µM. Take `CNCc1ccc(-n2ccnn2)c(NS(=O)(=O)c2ccccc2)c1` [IQ-4, N-(5-((methylamino)methyl)-2-(1H-1,2,3-triazol-1-yl)phenyl)benzenesulfonamide]: the IC50 lay in the range of 5 to 10 µM.
